Reference: publication PMC10975012, “The Active Glucuronide Metabolite of the Brain Protectant IMM-H004 with Poor Blood–Brain Barrier Permeability Demonstrates a High Partition in the Rat Brain via Multiple Mechanisms” (Pharmaceutics, 2024)
Like-named read-outs stand apart in the source and are kept apart here.

Test system: P-gp
Assay: Bidirectional transport in MDCKⅡ-MDR1 cell monolayers
Format: in vitro ADME
Settings: dog
Protocol: To further validate the effect of P-gp on the transport of IMM-H004G or IMM-H004, MDCKⅡ-MDR1 cells were seeded onto polycarbonate membrane transwell inserts in 24-well plates and used for transport studies after 5 days or when the effective transepithelial electric resistance (TEER) values exceeded 300 Ω·cm^2. The monolayers were initially rinsed twice with HBSS. Subsequently, IMM-H004G or IMM-H004 (10 µmol/L) was added to either the apical or basolateral side of the monolayer. Aliquots of 50 µL were collected from the opposite compartment at various time points, covering a maximum duration of 120 min. Digoxin (5 μmol/L) was used as a positive substrate, while PSC833 (5 µmol/L) was used as an inhibitor in MDCKⅡ-MDR1 cells. The apparent permeability value (Papp) was calculated using the following equation:(2) Papp=dQ/dt/AC0 where dQ/dt is the slope of the cumulative transport amount over time during the study period. A is the base area of the insert, and C0 is the initial addition concentration.
The efflux ratio (ER) was calculated as follows:ER = Papp(B−A)/Papp(A−B) (3)

C[C@H]1O[C@@H](O[C@H]2[C@@H](O)C[C@H](O[C@H]3[C@@H](O)C[C@H](O[C@H]4CC[C@@]5(C)[C@H](CC[C@@H]6[C@@H]5C[C@@H](O)[C@]5(C)[C@@H](C7=CC(=O)OC7)CC[C@]65O)C4)O[C@@H]3C)O[C@@H]2C)C[C@H](O)[C@@H]1O [digoxin, reference compound]
efflux ratio at 120 min (MDCK-MDR1, with PSC833 5 µmol/L, MDCKⅡ-MDR1, PSC833 5 µmol/L, read-out: efflux ratio (ER) in the presence of PSC833): 1.41 | efflux ratio at 120 min (MDCK-MDR1, MDCKⅡ-MDR1, no inhibitor, IMM-H004 10 µmol/L, digoxin 5 μmol/L, read-out: efflux ratio (ER)): 21.1
